One experiment deals with T1, IKKε (Homo sapiens, UniProt Q14164).
T1 construct: TBK1 and IKKε were expressed and purified as full length recombinant proteins; made in house
T1 sequence (Q14164 1-716): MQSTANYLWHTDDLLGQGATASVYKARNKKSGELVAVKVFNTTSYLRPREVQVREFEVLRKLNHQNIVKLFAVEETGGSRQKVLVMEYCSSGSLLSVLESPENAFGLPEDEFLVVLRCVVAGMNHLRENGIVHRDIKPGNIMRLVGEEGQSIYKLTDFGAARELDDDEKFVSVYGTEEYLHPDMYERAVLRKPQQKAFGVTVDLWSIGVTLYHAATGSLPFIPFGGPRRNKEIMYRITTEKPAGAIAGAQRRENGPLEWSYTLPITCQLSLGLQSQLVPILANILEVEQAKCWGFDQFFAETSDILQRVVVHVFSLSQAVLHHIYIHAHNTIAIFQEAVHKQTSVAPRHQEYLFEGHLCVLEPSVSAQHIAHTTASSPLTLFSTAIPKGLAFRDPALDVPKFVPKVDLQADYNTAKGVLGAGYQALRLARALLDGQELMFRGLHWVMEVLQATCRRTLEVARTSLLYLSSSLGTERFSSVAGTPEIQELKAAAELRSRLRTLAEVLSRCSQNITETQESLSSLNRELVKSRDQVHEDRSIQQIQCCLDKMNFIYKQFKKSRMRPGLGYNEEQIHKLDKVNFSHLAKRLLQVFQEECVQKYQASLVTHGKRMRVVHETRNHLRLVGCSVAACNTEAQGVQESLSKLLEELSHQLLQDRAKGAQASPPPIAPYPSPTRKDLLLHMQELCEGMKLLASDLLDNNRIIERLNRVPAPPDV
The experiment is described as follows: TR-FRET enzymatic activity assay, IKKε. Also: full length recombinant IKKε at 0.3 nM. The class given is biochemical. To be noted: read-out: IKKϵ IC50. The protocol:
(§1) Biological Assay for TBK1 and IKKε:
Enzymatic activity of IKKε and TBK1 was measured using a homogeneous time resolved fluorescence resonance energy transfer (TR-FRET) assay that monitors enzyme dependent phosphorylation of a biotinylated serine/threonine peptide substrate. […] TBK1 and IKKε were expressed and purified as full length recombinant proteins. Detection reagents for the assay were purchased from Cisbio. […] After an assay reaction time of 240 minutes at 25° C., reactions were terminated with EDTA.
(§2) Amount of phosphorylated peptide was determined by the addition of 125 nM streptavidin XL665 and europium cryptate labeled anti-phospho monoclonal antibody and the resulting TR-FRET signal was recorded on an Envision plate reader (Ex: 340 nm; Em: 615/665 nm; 100 μs delay and 200 μs read window). Data was normalized based on a positive (1 μM Staurosporine) and negative (DMSO) controls and IC50 values calculated from the fit of the dose-response curves to a four-parameter equation. All IC50 values represent geometric mean values of a minimum of four determinations.

The target of a further experiment is T2, TBK1 (Homo sapiens, UniProt Q9UHD2).
T2 construct: TBK1 and IKKε were expressed and purified as full length recombinant proteins; made in house
T2 sequence (Q9UHD2 1-729): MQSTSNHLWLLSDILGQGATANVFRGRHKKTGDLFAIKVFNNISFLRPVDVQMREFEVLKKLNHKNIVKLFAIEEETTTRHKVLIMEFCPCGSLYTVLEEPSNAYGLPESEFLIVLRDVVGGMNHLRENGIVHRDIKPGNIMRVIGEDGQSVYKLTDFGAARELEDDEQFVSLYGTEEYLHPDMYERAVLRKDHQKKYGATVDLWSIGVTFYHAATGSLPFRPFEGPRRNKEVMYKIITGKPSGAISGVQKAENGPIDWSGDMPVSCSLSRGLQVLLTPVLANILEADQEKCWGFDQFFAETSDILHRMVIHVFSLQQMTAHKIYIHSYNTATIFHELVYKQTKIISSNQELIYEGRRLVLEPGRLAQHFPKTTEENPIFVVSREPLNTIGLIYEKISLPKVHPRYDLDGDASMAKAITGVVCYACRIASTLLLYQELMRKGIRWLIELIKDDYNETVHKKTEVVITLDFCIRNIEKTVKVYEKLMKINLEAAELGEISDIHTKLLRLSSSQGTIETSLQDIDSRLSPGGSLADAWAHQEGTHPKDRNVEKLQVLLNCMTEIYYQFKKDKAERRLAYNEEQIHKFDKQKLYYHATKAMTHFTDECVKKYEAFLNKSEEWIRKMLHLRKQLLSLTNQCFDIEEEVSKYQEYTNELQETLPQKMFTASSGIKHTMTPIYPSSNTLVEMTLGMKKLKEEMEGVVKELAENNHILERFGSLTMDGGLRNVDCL
The experiment in a line: TR-FRET enzymatic activity assay, TBK1. Also: full length recombinant TBK1 at 2.5 nM. Type of experiment: biochemical. As for the experimental part: as §1
Enzymatic activity of IKKε and TBK1 was measured using a homogeneous time resolved fluorescence resonance energy transfer (TR-FRET) assay that monitors enzyme dependent phosphorylation of a biotinylated serine/threonine peptide substrate. An increase in the amount of phosphorylated peptide results in an increase in TR-FRET signal. TBK1 and IKKε were expressed and purified as full length recombinant proteins. Detection reagents for the assay were purchased from Cisbio. […] After an assay reaction time of 240 minutes at 25° C., reactions were terminated with EDTA.
as §2, with “determinations. These assays generally produced results within 3-fold of the reported mean.” for “determinations.”

`N#Cc1cc(-c2ccnc(NC(=O)[C@@H]3C[C@H]3c3ccncc3)c2)ccc1OC1CCOCC1` (relative stereo) [Example 151, Trans-N-(4-(3-cyano-4-((tetrahydro-2H-pyran-4-yl)oxy)phenyl)pyridin-2-yl)-2-(pyridin-4-yl)cyclopropane-1-carboxamide]: the IC50 on IKKε turned out to be 200 nM; on TBK1 it was 75.6 nM.
For `N#Cc1cc(-c2ccnc(NC(=O)[C@H]3C[C@@H]3C3CC3)c2)ccc1OC1CCOCC1` (relative stereo) [Example 88, (1,2-trans)-N-(4-(3-cyano-4-((tetrahydro-2H-pyran-4-yl)oxy)phenyl)pyridin-2-yl)-[1,1′-bi(cyclopropane)]-2-carboxamide] the same measures were 314 nM and 58.8 nM.
In the case of `N#Cc1cc(-c2ccnc(NC(=O)[C@@H]3C[C@H]3c3ccco3)c2)ccc1OC1CCOCC1` (relative stereo) [Example 150, Trans-N-(4-(3-cyano-4-((tetrahydro-2H-pyran-4-yl)oxy)phenyl)pyridin-2-yl)-2-(furan-2-yl)cyclopropane-1-carboxamide], the IC50 at IKKε stood at 636 nM; against TBK1 it was 70.5 nM.
For the compound `Cn1cc([C@H]2C[C@@H]2C(=O)Nc2cc(-c3ccc(O[C@H]4CCN(C(=O)CO)CC4(F)F)c(C#N)c3)ccn2)cn1` [Example 122, (1S, 2S)—N-(4-(3-cyano-4-(((S)-3,3-difluoro-1-(2-hydroxyacetyl)piperidin-4-yl)oxy)phenyl)pyridin-2-yl)-2-(1-methyl-1H-pyrazol-4-yl)cyclopropane-1-carboxamide], the IC50 was determined as 4.9 nM at IKKε and 6 nM against TBK1.
Consider `C[n+]1ccccc1N1CC[C@H](Oc2ccc(-c3cc(NC(=O)C4CC4)ncn3)cc2C#N)[C@H](F)C1` [Example 31, 2-((3R,4S)-4-(2-cyano-4-(6-(cyclopropanecarboxamido)pyrimidin-4-yl)phenoxy)-3-fluoropiperidin-1-yl)-1-methylpyridin-1-ium 2,2,2-trifluoroacetate], for which the IC50 at IKKε and at TBK1 was more than 1000 nM each time.
For the compound `CN(C)C[C@@H]1C[C@H]1C(=O)Nc1cc(-c2ccc(OC3CCOCC3)c(C#N)c2)ccn1` (relative stereo) [Example 41, (1,2-trans)-N-(4-(3-cyano-4-((tetrahydro-2H-pyran-4-yl)oxy)phenyl)pyridin-2-yl)-2-((dimethylamino)methyl)cyclopropane-1-carboxamide], the IC50 at IKKε worked out at 80.3 nM; against TBK1, 267 nM.
For `Cn1cc([C@@H]2C[C@H]2C(=O)Nc2cc(-c3ccc(O[C@H]4CCN(C(=O)[C@@H](O)CO)CC4(F)F)c(C#N)c3)ccn2)cn1` [Example 131, (1,2-Trans)-N-(4-(3-cyano-4-(((S)-1-((S)-2,3-dihydroxypropanoyl)-3,3-difluoropiperidin-4-yl)oxy)phenyl)pyridin-2-yl)-2-(1-methyl-1H-pyrazol-4-yl)cyclopropane-1-carboxamide], the IC50 was determined as 11.6 nM at IKKε and 6.6 nM on TBK1.
For the compound `N#Cc1cc(-c2ccnc(NC(=O)C3CC3C#N)c2)ccc1O[C@H]1CCN(C(=O)CO)C[C@H]1F` (stereo partly drawn) [Example 67, 2-Cyano-N-(4-(3-cyano-4-(((3R,4S)-3-fluoro-1-(2-hydroxyacetyl)piperidin-4-yl)oxy)phenyl)pyridin-2-yl)cyclopropane-1-carboxamide], the results for the IC50 at IKKε and against TBK1 were 68.4 nM and 26.1 nM, respectively.
`N#Cc1cc(-c2ccnc(NC(=O)[C@@H]3C[C@H]3CO)c2)ccc1OC1CCOCC1` (relative stereo) [Example 42, (1,2-trans)-N-(4-(3-cyano-4-((tetrahydro-2H-pyran-4-yl)oxy)phenyl)pyridin-2-yl)-2-(hydroxymethyl)cyclopropane-1-carboxamide]: the IC50 at IKKε amounted to 48.2 nM; against TBK1, 62.1 nM.
For `N#Cc1cc(-c2cc(NC(=O)[C@@H]3C[C@H]3c3cccnc3)ncn2)ccc1O[C@H]1CCN(C(=O)[C@@H](O)CO)CC1(F)F` [Example 144, (1,2-Trans)-N-(6-(3-cyano-4-(((S)-1-((S)-2,3-dihydroxypropanoyl)-3,3-difluoropiperidin-4-yl)oxy)phenyl)pyrimidin-4-yl)-2-(pyridin-3-yl)cyclopropane-1-carboxamide], the IC50 on IKKε turned out to be 9 nM; against TBK1, 7.1 nM.
Take `N#Cc1cc(-c2ccnc(NC(=O)C3CC3c3c[nH]cn3)c2)ccc1O[C@H]1CCN(C(=O)CO)C[C@H]1F` (stereo partly drawn) [Example 81, N-(4-(3-Cyano-4-(((3R,4S)-3-fluoro-1-(2-hydroxyacetyl)piperidin-4-yl)oxy)phenyl)pyridin-2-yl)-2-(1H-imidazol-4-yl)cyclopropane-1-carboxamide]: the figures for the IC50 at IKKε and at TBK1 were 47 nM and 18.8 nM, respectively.
For `N#Cc1cc(-c2ccnc(NC(=O)[C@H]3C[C@@H]3C(F)F)c2)ccc1OC1CCOCC1` (relative stereo) [Example 101, (1,2-trans)-N-(4-(3-cyano-4-((tetrahydro-2H-pyran-4-yl)oxy)phenyl)pyridin-2-yl)-2-(difluoromethyl)cyclopropane-1-carboxamide] the same measures were more than 1000 nM and 96.8 nM.
Consider `N#Cc1cc(-c2cc(NC(=O)C3CC3)ncn2)ccc1O[C@H]1CCNCC1(F)F` [Example 25, (S)—N-(6-(3-cyano-4-((3,3-difluoropiperidin-4-yl)oxy)phenyl)pyrimidin-4-yl)cyclopropanecarboxamide], for which the IC50 turned out to be 297 nM at IKKε and 93.3 nM against TBK1.
Regarding `N#Cc1cc(-c2ccnc(NC(=O)[C@H]3C[C@H]3F)c2)ccc1N1CCCC1` [Example 64, (1R,2R)—N-(4-(3-cyano-4-(pyrrolidin-1-yl)phenyl)pyridin-2-yl)-2-fluorocyclopropane-1-carboxamide], the IC50 at IKKε came to 578 nM; against TBK1, 85.3 nM.
The like results for `N#Cc1cc(-c2cc(NC(=O)C3CC3)ncn2)ccc1O[C@@H]1CCN(C(=O)CO)C[C@H]1F` [Example 111, N-(6-(3-cyano-4-(((3R,4R)-3-fluoro-1-(2-hydroxyacetyl)piperidin-4-yl)oxy)phenyl)pyrimidin-4-yl)cyclopropanecarboxamide] were, in that order, 254 nM and 105 nM.
For `N#Cc1cc(-c2cc(NC(=O)C3CC3)ncn2)ccc1O[C@H]1CCN(C(=O)[C@@H](O)CO)C[C@H]1F` [Example 21, N-(6-(3-cyano-4-(((3R,4S)-1-((S)-2,3-dihydroxypropanoyl)-3-fluoropiperidin-4-yl)oxy)phenyl)pyrimidin-4-yl)cyclopropanecarboxamide] the same measures were 31.3 nM and 6.1 nM.

Source of the values: US10316049B2, “Tank-binding kinase inhibitor compounds” (Gilead Sciences, Inc., priority 2015, dated 2019).
